EC50 and IC50 data for four molecules are collected here from ChEMBL document CHEMBL2331430, “Absolute configuration and conformational analysis of brevipolides, bioactive 5,6-dihydro-α-pyrones from Hyptis brevipes” (J Nat Prod, 2013).

Converted amounts (≈) assume the structure as drawn.

In assay [1] the test system is Hep-2 (human laryngeal carcinoma). Nature of the assay: Cytotoxicity against human Hep-2 cells after 72 hrs by SRB assay. The settings on record: Hep-2, 72 h, read-out: ED50 (the source's name). Background: Sulforhodamine B stains cellular protein and so reports cell mass.
A further assay has as its system PC-3. The assay is described as follows: Cytotoxicity against human PC3 cells after 72 hrs by SRB assay. The following applies: PC-3, 72 h, read-out: ED50 (the source's name).
In the next assay the test system is HCT-15. Nature of the assay: Cytotoxicity against human HCT15 cells after 72 hrs by SRB assay. The settings on record: HCT-15, 72 h, read-out: ED50 (the source's name).
In another assay the test system is MCF7. The assay is described as follows: Cytotoxicity against human MCF7 cells after 72 hrs by SRB assay. The settings on record: MCF7, 72 h, read-out: ED50 (the source's name).
A further assay has as its system HeLa. The assay is described as follows: Cytotoxicity against human HeLa cells after 72 hrs by SRB assay. The settings on record: read-out: ED50 (the source's name).
Another assay concerns KB. The assay is described as follows: Cytotoxicity against human KB cells after 72 hrs by SRB assay.

One may read the IC50 as the midpoint of a concentration-inhibition curve. A higher IC50 goes with lower potency. For the molecule `COc1ccc(/C=C\C(=O)O[C@@H](C)C(=O)[C@H]2C[C@@H]2[C@H](O)[C@H]2CC=CC(=O)O2)cc1` [BREVIPOLIDE I], the EC50 (in assay [1]; with PC-3; with HCT-15; in the assay with MCF7; with HeLa) was 0.3 µg/mL (≈ 0.749 µM) in each case. Also, the IC50 with KB is 1.9 µg/mL (≈ 4.74 µM).

For the molecule `C[C@H](OC(=O)/C=C/c1ccc(O)cc1)C(=O)[C@H]1C[C@@H]1[C@H](O)[C@H]1CC=CC(=O)O1` [BREVIPOLIDE G], the EC50 (in assay [1]; with PC-3; in the assay on HCT-15; in the assay on MCF7; in the assay on HeLa) was 0.3 µg/mL (≈ 0.776 µM) in each case. Further, half-maximal inhibition in the assay on KB (IC50) required 0.3 µg/mL (≈ 0.776 µM).

In the case of `COc1ccc(/C=C/C(=O)O[C@@H](C)C(=O)[C@H]2C[C@@H]2[C@H](O)[C@H]2CC=CC(=O)O2)cc1O` [BREVIPOLIDE J], the EC50 (in assay [1]; in the assay with PC-3; with HCT-15; in the assay on MCF7; in the assay with HeLa) was 0.3 µg/mL (≈ 0.72 µM) in each case. Also, half-maximal inhibition in the assay on KB (IC50) required 1.2 µg/mL (≈ 2.88 µM).

For `COc1ccc(/C=C/C(=O)O[C@@H](C)C(=O)[C@H]2C[C@@H]2[C@H](O)[C@H]2CC=CC(=O)O2)cc1` [BREVIPOLIDE H], the EC50 (in assay [1]; in the assay on PC-3; in the assay with HCT-15; in the assay on MCF7; in the assay on HeLa) was 0.3 µg/mL (≈ 0.749 µM) in each case. This molecule displayed an IC50 with KB of 2 µg/mL (≈ 4.99 µM).
